Measured values as given in publication PMC8954547, “Nonpeptidic Z360-Analogs Tagged with Trivalent Radiometals as Anti-CCK2R Cancer Theranostic Agents: A Preclinical Study” (Pharmaceutics, 2022).

Experiments:
HEK293-CCK2i4svR cells = experiment: Radioligand uptake and internalization in HEK293-CCK2i4svR cells; type: cell-based, human
How it was run: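 Cells incubated at 37 °C with 250 fmol radioligand in DMEM/1% FBS for 1 h ([111In]In-GAS1/2/3 also 15, 30 min, 2 h). Acid wash (glycine pH 2.8) gave membrane-bound and 1 N NaOH lysis gave internalized fractions, gamma-counted. Specific values (minus 1 µM DG2 nonspecific) as % of added activity per well.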

[1] = Radioligand stability in mice (radio-HPLC of blood and urine); type: in vivo; settings: mean ± SD
How it was run: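 Male Swiss albino mice (n=3) given 2.5–3 nmol radioligand i.v. via tail vein in saline/EtOH 9/1. Blood at 5 min and urine at 30 min pi, EDTA-treated on ice, MeCN-deproteinised, analysed by radio-RP-HPLC; value is mean percent intact radioligand ± SD.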

SMILES: CC(C)(C)C(=O)CN1C(=O)[C@H](NC(=O)Nc2cccc(C(=O)NCCOCCOCCOCCNC(=O)[C@H](CCC(=O)O)NC(=O)CCC(C(=O)O)N3CCN(CC(=O)[O-])CCN(CC(=O)[O-])CCN(CC(=O)[O-])CC3)c2)CN(C2CCCCC2)c2ccccc21.[177Lu+3] (stereo in doubt) [[^177Lu]Lu-GAS3]
- Internalized to membrane-bound ratio (HEK293-CCK2i4svR cells): 2.8
- Cell uptake (internalized + membrane-bound) (HEK293-CCK2i4svR cells; 1 h 37 °C, specific, of total added activity): 7.65 ± 1.31%
- Intact radioligand in blood ([1]; mice blood collected 5 min pi): 95.8 ± 2.0 (3) %
- Intact radioligand in urine ([1]; mice urine collected 30 min pi): 88.1 ± 0.4 (3) %
